The text below walks through data of patent publication US8802597B2, “Herbicidal pyrimidines” (E I du Pont de Nemours and Company, priority 2003, dated 2014).

Common to all, as to assay: Test D pre/postemergence
Holding throughout (type): in vivo
Common to all, as to settings: scale 0 to 100 (100 = complete control)

In assay [1] the test system is common chickweed (Stellaria media). An excerpt: (§1) Seeds of plant species selected from catchweed bedstraw (galium; Galium aparine), common chickweed (Stellaria media), kochia (Kochia scoparia), lambsquarters (Chenopodium album), pigweed (Amaranthus retroflexus), Russian thistle (Salsola kali), wild buckwheat (Polygonum convolvulus), wild mustard (Sinapis arvensis), winter barley (Hordeum vulgare), and wheat (Triticum aestivum) were planted and treated preemergence with test chemicals formulated in a non-phytotoxic solvent mixture which included a surfactant.
(§2) At the same time, plants selected from these crop and weed species were treated with postemergence applications of some of the test chemicals formulated in the same manner. Plants ranged in height from 2 to 18 cm (1- to 4-leaf stage) for postemergence treatments. Treated plants and controls were maintained in a controlled growth environment for 15 to 25 days after which time all species were compared to controls and visually evaluated. Plant response ratings, summarized in Table D, are based on a scale of 0 to 100 where 0 is no effect and 100 is complete control. A dash (-) response means no test result.

The subject of assay [2] is catchweed bedstraw (galium; Galium aparine).
Excerpt: as §1, §2

For assay [3], the system named is Russian thistle (Salsola kali).
Excerpt: as §1, §2

Assay [4] concerns wild mustard (Sinapis arvensis).
Excerpt: as §1, §2

`COC(=O)c1nc(-c2ccc(Cl)cc2)nc(N)c1Cl` [Compound 58, methyl 6-amino-5-chloro-2-(4-chlorophenyl)-4-pyrimidinecarboxylate]: the “Plant response rating, Chickweed” value in assay [1] (Preemergence, 62 g ai/ha) was found to be 60; in assay [1] (Preemergence, 250 g ai/ha) it was 75; in assay [1] (Preemergence, 500 g ai/ha), 100. Also, the “Plant response rating, Galium” value in assay [2] (Postemergence, 62 g ai/ha) is listed as 100; in assay [2] (Postemergence, 125 g ai/ha), 100; in assay [2] (Postemergence, 250 g ai/ha), 100; in assay [2] (Postemergence, 500 g ai/ha), 100; in assay [2] (Preemergence, 62 g ai/ha) it was 100; in assay [2] (Preemergence, 125 g ai/ha), 100. In addition, the “Plant response rating, Galium” value in assay [2] (Preemergence, 250 g ai/ha) is recorded as 100; in assay [2] (Preemergence, 500 g ai/ha) it was 100. The “Plant response rating, Russian Thistle” value worked out at 70 in assay [3] (Postemergence, 62 g ai/ha); 70 in assay [3] (Postemergence, 125 g ai/ha); 70 in assay [3] (Postemergence, 250 g ai/ha); 80 in assay [3] (Postemergence, 500 g ai/ha); 40 in assay [3] (Preemergence, 62 g ai/ha); 65 in assay [3] (Preemergence, 125 g ai/ha). In addition, the “Plant response rating, Russian Thistle” value is listed as 70 in assay [3] (Preemergence, 250 g ai/ha) and 85 in assay [3] (Preemergence, 500 g ai/ha). In addition, the “Plant response rating, Mustard, Wild” value came to 100 in assay [4] (Postemergence, 62 g ai/ha); 100 in assay [4] (Postemergence, 125 g ai/ha); 100 in assay [4] (Postemergence, 250 g ai/ha); 100 in assay [4] (Postemergence, 500 g ai/ha); 65 in assay [4] (Preemergence, 62 g ai/ha); 100 in assay [4] (Preemergence, 125 g ai/ha). Further, the “Plant response rating, Mustard, Wild” value in assay [4] (Preemergence, 250 g ai/ha) came out at 100; in assay [4] (Preemergence, 500 g ai/ha), 100.
In the case of `Nc1nc(C2CC2)nc(C=O)c1Br` [Compound 26], the “Plant response rating, Chickweed” value in assay [1] (Postemergence, 125 g ai/ha) turned out to be 45; in assay [1] (Postemergence, 250 g ai/ha) it was 55; in assay [1] (Preemergence, 125 g ai/ha), 60; in assay [1] (Preemergence, 250 g ai/ha), 65. Besides, the “Plant response rating, Galium” value came to 70 in assay [2] (Postemergence, 125 g ai/ha); 85 in assay [2] (Postemergence, 250 g ai/ha); 85 in assay [2] (Preemergence, 125 g ai/ha); 100 in assay [2] (Preemergence, 250 g ai/ha). Besides, the “Plant response rating, Russian Thistle” value is reported as 40 in assay [3] (Postemergence, 125 g ai/ha); 40 in assay [3] (Postemergence, 250 g ai/ha); 100 in assay [3] (Preemergence, 250 g ai/ha). Besides, the “Plant response rating, Mustard, Wild” value in assay [4] (Postemergence, 125 g ai/ha) came to 60; in assay [4] (Postemergence, 250 g ai/ha), 75; in assay [4] (Preemergence, 125 g ai/ha), 65; in assay [4] (Preemergence, 250 g ai/ha), 65.
On to `COC(=O)c1nc(C2CC2)nc(N)c1Br` [Compound 2, methyl 6-amino-5-bromo-2-cyclopropyl-4-pyrimidinecarboxylate], for which the “Plant response rating, Chickweed” value is given as 60 in assay [1] (Postemergence, 16 g ai/ha); 60 in assay [1] (Postemergence, 31 g ai/ha); 85 in assay [1] (Postemergence, 62 g ai/ha); 85 in assay [1] (Postemergence, 125 g ai/ha); 60 in assay [1] (Preemergence, 16 g ai/ha); 60 in assay [1] (Preemergence, 31 g ai/ha). For the same compound, the “Plant response rating, Chickweed” value turned out to be 75 in assay [1] (Preemergence, 62 g ai/ha) and 90 in assay [1] (Preemergence, 125 g ai/ha). The “Plant response rating, Galium” value was 75 in assay [2] (Postemergence, 16 g ai/ha); 100 in assay [2] (Postemergence, 31 g ai/ha); 100 in assay [2] (Postemergence, 62 g ai/ha); 100 in assay [2] (Postemergence, 125 g ai/ha); 80 in assay [2] (Preemergence, 16 g ai/ha); 90 in assay [2] (Preemergence, 31 g ai/ha). The “Plant response rating, Galium” value is on record as 98 in assay [2] (Preemergence, 62 g ai/ha) and 100 in assay [2] (Preemergence, 125 g ai/ha). Moreover, the “Plant response rating, Russian Thistle” value in assay [3] (Postemergence, 16 g ai/ha) is 65; in assay [3] (Postemergence, 31 g ai/ha), 85; in assay [3] (Postemergence, 62 g ai/ha), 95; in assay [3] (Postemergence, 125 g ai/ha) it was 100; in assay [3] (Preemergence, 16 g ai/ha), 85; in assay [3] (Preemergence, 31 g ai/ha) it was 100. For the same compound, the “Plant response rating, Russian Thistle” value in assay [3] (Preemergence, 62 g ai/ha) is 100; in assay [3] (Preemergence, 125 g ai/ha), 100. For the same compound, the “Plant response rating, Mustard, Wild” value in assay [4] (Postemergence, 16 g ai/ha) amounted to 65; in assay [4] (Postemergence, 31 g ai/ha), 65; in assay [4] (Postemergence, 62 g ai/ha) it was 70; in assay [4] (Postemergence, 125 g ai/ha) it was 80; in assay [4] (Preemergence, 16 g ai/ha), 50; in assay [4] (Preemergence, 31 g ai/ha) it was 70. The “Plant response rating, Mustard, Wild” value in assay [4] (Preemergence, 62 g ai/ha) is 70; in assay [4] (Preemergence, 125 g ai/ha), 85.
For the compound `COC(=O)c1nc(C2CC2)nc(NO)c1Br` [Compound 35], the “Plant response rating, Chickweed” value in assay [1] (Postemergence, 62 g ai/ha) came to 80; in assay [1] (Postemergence, 125 g ai/ha) it was 80; in assay [1] (Postemergence, 250 g ai/ha), 85; in assay [1] (Preemergence, 62 g ai/ha), 60; in assay [1] (Preemergence, 125 g ai/ha), 100; in assay [1] (Preemergence, 250 g ai/ha), 100. The “Plant response rating, Galium” value in assay [2] (Postemergence, 62 g ai/ha) is reported as 100; in assay [2] (Postemergence, 125 g ai/ha) it was 100; in assay [2] (Postemergence, 250 g ai/ha), 100; in assay [2] (Preemergence, 62 g ai/ha), 85; in assay [2] (Preemergence, 125 g ai/ha), 100; in assay [2] (Preemergence, 250 g ai/ha) it was 100. Moreover, the “Plant response rating, Russian Thistle” value in assay [3] (Postemergence, 62 g ai/ha) stood at 100; in assay [3] (Postemergence, 125 g ai/ha), 100; in assay [3] (Postemergence, 250 g ai/ha) it was 100; in assay [3] (Preemergence, 62 g ai/ha), 85; in assay [3] (Preemergence, 125 g ai/ha), 100; in assay [3] (Preemergence, 250 g ai/ha), 100. Besides, the “Plant response rating, Mustard, Wild” value in assay [4] (Postemergence, 62 g ai/ha) is 75; in assay [4] (Postemergence, 125 g ai/ha), 75; in assay [4] (Postemergence, 250 g ai/ha) it was 75; in assay [4] (Preemergence, 62 g ai/ha) it was 65; in assay [4] (Preemergence, 125 g ai/ha), 70; in assay [4] (Preemergence, 250 g ai/ha) it was 75.
Consider `CCOC(=O)C(OC(C)=O)c1nc(C2CC2)nc(N)c1Br` (centres unmarked) [Compound 47], for which the “Plant response rating, Chickweed” value was 35 in assay [1] (Postemergence, 31 g ai/ha); 60 in assay [1] (Postemergence, 62 g ai/ha); 65 in assay [1] (Postemergence, 125 g ai/ha); 70 in assay [1] (Postemergence, 250 g ai/ha). The “Plant response rating, Galium” value worked out at 65 in assay [2] (Postemergence, 31 g ai/ha); 75 in assay [2] (Postemergence, 62 g ai/ha); 80 in assay [2] (Postemergence, 125 g ai/ha); 98 in assay [2] (Postemergence, 250 g ai/ha). Further, the “Plant response rating, Russian Thistle” value in assay [3] (Postemergence, 31 g ai/ha) is 45; in assay [3] (Postemergence, 62 g ai/ha), 55; in assay [3] (Postemergence, 125 g ai/ha) it was 65; in assay [3] (Postemergence, 250 g ai/ha), 70. The “Plant response rating, Mustard, Wild” value in assay [4] (Postemergence, 31 g ai/ha) turned out to be 55; in assay [4] (Postemergence, 62 g ai/ha), 60; in assay [4] (Postemergence, 125 g ai/ha), 65; in assay [4] (Postemergence, 250 g ai/ha), 70.
As to `COC(=O)c1nc(C2CC2C)nc(N)c1Br` (centres unmarked) [Compound 28], the “Plant response rating, Chickweed” value in assay [1] (Postemergence, 62 g ai/ha) stood at 65; in assay [1] (Postemergence, 125 g ai/ha) it was 65; in assay [1] (Postemergence, 250 g ai/ha), 65; in assay [1] (Preemergence, 62 g ai/ha), 60; in assay [1] (Preemergence, 125 g ai/ha), 60; in assay [1] (Preemergence, 250 g ai/ha), 60. The “Plant response rating, Galium” value in assay [2] (Postemergence, 62 g ai/ha) was determined as 100; in assay [2] (Postemergence, 250 g ai/ha), 100; in assay [2] (Preemergence, 62 g ai/ha), 100; in assay [2] (Preemergence, 125 g ai/ha), 100; in assay [2] (Preemergence, 250 g ai/ha) it was 100. The “Plant response rating, Russian Thistle” value in assay [3] (Postemergence, 62 g ai/ha) turned out to be 65; in assay [3] (Postemergence, 125 g ai/ha), 70; in assay [3] (Postemergence, 250 g ai/ha) it was 70; in assay [3] (Preemergence, 62 g ai/ha), 45; in assay [3] (Preemergence, 125 g ai/ha) it was 80; in assay [3] (Preemergence, 250 g ai/ha) it was 100. Besides, the “Plant response rating, Mustard, Wild” value amounted to 45 in assay [4] (Postemergence, 62 g ai/ha); 60 in assay [4] (Postemergence, 125 g ai/ha); 60 in assay [4] (Postemergence, 250 g ai/ha); 60 in assay [4] (Preemergence, 62 g ai/ha); 60 in assay [4] (Preemergence, 125 g ai/ha); 60 in assay [4] (Preemergence, 250 g ai/ha).
